# Test results taken from publication PMC12827894, “Structure-guided design of picomolar-level macrocyclic TRPC5 channel inhibitors with antidepressant activity” (Acta Pharmaceutica Sinica. B, 2025).
# pIC50: −log10 of the molar value.
# Tests used:
# TRPC5 [1] = target: T1, TRPC5 (Homo sapiens, UniProt Q9UL62); test: cell-based
# T1 sequence (Q9UL62 1-973): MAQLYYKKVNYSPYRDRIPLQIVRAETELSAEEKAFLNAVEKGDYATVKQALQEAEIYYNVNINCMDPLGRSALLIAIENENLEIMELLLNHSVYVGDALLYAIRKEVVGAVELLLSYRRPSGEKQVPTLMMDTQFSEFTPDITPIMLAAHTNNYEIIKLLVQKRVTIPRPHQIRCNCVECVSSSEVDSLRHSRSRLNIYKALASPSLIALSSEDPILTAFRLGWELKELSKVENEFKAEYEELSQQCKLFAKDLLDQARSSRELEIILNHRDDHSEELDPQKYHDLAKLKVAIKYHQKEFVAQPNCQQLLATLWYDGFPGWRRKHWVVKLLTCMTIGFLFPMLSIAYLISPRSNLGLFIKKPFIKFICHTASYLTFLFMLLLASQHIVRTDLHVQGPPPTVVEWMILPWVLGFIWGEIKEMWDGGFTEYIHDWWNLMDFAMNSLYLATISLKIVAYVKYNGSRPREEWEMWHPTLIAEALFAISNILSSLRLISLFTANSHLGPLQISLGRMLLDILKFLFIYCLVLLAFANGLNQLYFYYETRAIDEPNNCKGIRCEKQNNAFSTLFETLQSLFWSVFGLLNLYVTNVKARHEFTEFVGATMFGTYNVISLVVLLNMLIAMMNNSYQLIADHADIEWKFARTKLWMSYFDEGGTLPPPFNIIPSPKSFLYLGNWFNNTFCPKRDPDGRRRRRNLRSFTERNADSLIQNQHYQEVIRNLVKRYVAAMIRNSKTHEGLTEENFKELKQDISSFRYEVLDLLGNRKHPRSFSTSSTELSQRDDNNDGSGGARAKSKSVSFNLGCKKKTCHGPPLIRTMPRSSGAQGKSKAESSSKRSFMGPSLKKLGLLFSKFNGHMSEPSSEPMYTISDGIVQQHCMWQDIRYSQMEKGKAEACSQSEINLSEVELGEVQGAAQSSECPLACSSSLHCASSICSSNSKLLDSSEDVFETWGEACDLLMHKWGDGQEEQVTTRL
# TRPC5 [2] = target: T1, TRPC5; test: Whole-cell patch-clamp, TRPC5, Ca2+-activated condition; assay type: cell-based; details: read-out: IC50, TRPC5, endogenous Ca2+-evoked activation
# TRPC5 Q573A = target: T2, TRPC5 Q573A (Homo sapiens, UniProt Q9UL62, Q573A); test: Inhibition of TRPC5 mutant Q573A; assay type: cell-based; details: TRPC5 Q573A vs wild type
# T2 construct: full-length wild-type or mutant TRPC5 was cloned into a pcDNA3.1 vector; expressed in transfected cells; host or cells: HEK293T
# M1 = target: T3, M1 (Homo sapiens, UniProt P11229); test: cell-based; assay type: cell-based
# T3 construct: purchased ICE Bioscience ICESTP SafetyOne44 Panel
# T3 sequence (P11229 whole entry): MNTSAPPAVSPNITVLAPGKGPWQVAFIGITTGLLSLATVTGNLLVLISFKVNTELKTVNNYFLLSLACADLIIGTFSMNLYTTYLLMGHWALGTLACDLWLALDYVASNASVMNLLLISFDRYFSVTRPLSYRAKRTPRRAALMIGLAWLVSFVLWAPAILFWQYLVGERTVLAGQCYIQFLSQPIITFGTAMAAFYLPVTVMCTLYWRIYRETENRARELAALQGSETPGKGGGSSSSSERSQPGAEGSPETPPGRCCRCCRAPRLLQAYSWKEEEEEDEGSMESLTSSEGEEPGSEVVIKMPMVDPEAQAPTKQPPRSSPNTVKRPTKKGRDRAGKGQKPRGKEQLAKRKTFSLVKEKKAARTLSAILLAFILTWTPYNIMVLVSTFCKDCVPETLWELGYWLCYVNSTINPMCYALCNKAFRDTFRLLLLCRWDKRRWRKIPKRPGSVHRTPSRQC
# M2 = target: T4, M2 (Homo sapiens, UniProt P08172); test: cell-based; assay type: cell-based
# T4 construct: purchased ICE Bioscience ICESTP SafetyOne44 Panel
# T4 sequence (P08172 whole entry): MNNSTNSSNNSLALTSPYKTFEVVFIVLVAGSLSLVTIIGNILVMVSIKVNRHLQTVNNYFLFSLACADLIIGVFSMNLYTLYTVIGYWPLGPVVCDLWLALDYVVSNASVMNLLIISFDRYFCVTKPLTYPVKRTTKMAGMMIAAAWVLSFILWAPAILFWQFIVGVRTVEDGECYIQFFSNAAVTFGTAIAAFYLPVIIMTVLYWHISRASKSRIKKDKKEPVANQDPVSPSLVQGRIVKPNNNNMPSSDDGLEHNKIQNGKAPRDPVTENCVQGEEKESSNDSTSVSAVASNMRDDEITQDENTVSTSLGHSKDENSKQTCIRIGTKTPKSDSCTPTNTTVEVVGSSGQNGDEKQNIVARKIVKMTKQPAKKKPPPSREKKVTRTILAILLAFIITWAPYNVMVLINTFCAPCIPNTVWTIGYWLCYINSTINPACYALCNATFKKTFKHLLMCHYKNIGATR
# 5-HT1A = target: T5, 5-HT1A (Homo sapiens, UniProt P08908); test: cell-based; assay type: cell-based
# T5 construct: purchased ICE Bioscience ICESTP SafetyOne44 Panel
# 5-HT1B = target: T6, 5-HT1B (Homo sapiens, UniProt P28222); test: cell-based; details: 10 μmol/L
# T6 construct: purchased ICE Bioscience ICESTP SafetyOne44 Panel
# T6 sequence (P28222 whole entry): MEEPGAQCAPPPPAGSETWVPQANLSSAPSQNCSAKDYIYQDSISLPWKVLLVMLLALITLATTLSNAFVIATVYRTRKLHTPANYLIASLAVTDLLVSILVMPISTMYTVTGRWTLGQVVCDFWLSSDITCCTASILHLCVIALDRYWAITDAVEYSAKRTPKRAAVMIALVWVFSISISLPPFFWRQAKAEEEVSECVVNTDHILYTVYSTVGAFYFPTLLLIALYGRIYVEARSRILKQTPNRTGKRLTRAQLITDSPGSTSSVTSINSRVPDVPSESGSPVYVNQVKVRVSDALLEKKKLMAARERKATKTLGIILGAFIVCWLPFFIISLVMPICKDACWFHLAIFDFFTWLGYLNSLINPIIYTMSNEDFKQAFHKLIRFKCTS
# A2A = target: T7, A2A (Homo sapiens, UniProt P29274); assay type: cell-based
# T7 construct: purchased ICE Bioscience ICESTP SafetyOne44 Panel
# T7 sequence (P29274 whole entry): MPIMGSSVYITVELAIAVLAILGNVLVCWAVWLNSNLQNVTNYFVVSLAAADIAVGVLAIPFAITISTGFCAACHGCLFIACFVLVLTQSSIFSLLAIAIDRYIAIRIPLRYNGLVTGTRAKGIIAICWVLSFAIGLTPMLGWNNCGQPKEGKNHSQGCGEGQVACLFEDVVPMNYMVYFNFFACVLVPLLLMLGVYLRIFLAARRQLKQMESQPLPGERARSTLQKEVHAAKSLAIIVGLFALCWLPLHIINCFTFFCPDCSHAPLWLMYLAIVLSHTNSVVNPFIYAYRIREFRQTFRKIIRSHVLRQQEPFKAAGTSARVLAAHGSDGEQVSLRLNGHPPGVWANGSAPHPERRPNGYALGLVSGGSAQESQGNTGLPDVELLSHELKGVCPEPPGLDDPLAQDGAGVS
# α2A = target: T8, α2A (Homo sapiens, UniProt P08913); test: cell-based; assay type: cell-based
# T8 construct: purchased ICE Bioscience ICESTP SafetyOne44 Panel
# T8 sequence (P08913 whole entry): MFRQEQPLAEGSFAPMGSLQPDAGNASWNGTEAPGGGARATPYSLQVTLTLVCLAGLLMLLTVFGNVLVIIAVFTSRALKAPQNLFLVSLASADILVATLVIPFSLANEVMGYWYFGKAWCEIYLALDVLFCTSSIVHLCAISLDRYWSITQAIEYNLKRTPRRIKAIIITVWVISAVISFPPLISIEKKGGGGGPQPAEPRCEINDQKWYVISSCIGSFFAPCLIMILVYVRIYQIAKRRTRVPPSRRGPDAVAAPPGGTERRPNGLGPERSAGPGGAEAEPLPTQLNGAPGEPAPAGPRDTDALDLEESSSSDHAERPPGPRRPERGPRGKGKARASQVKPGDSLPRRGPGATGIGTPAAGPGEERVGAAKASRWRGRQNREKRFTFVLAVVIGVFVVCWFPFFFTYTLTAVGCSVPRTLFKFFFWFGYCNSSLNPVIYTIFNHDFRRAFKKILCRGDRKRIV
# β1 = target: T9, β1 (Homo sapiens, UniProt P08588); test: SafetyOne44 panel: β1; assay type: cell-based
# T9 construct: purchased ICE Bioscience ICESTP™ SafetyOne44 Panel
# T9 sequence (P08588 whole entry): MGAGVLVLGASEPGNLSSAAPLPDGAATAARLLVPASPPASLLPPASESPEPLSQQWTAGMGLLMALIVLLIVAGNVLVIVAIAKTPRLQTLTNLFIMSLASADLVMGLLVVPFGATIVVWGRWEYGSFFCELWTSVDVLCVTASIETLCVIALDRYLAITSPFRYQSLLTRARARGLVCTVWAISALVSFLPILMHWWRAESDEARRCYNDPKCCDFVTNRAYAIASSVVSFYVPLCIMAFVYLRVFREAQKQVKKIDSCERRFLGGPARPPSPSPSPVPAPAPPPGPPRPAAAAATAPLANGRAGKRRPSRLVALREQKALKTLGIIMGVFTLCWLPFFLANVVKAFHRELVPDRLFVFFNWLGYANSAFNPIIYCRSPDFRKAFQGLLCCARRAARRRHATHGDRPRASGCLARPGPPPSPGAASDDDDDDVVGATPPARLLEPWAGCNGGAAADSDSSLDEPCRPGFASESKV
# β2 = target: T10, β2 (Homo sapiens, UniProt P07550); test: SafetyOne44 panel: β2; assay type: cell-based
# T10 construct: purchased ICE Bioscience ICESTP™ SafetyOne44 Panel
# T10 sequence (P07550 whole entry): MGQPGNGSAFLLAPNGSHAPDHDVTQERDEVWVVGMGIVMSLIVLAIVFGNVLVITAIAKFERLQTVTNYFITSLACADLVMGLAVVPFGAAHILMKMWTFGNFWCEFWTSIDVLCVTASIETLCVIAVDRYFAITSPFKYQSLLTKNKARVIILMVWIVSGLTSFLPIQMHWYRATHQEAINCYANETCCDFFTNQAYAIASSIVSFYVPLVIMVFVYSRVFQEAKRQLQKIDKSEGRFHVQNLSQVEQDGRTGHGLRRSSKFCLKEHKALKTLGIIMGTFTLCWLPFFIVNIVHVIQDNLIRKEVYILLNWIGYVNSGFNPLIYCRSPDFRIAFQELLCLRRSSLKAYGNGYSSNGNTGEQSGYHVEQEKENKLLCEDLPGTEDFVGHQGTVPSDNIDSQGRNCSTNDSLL
# CB1 = target: T11, CB1 (Homo sapiens, UniProt P21554); test: cell-based; assay type: cell-based
# T11 construct: purchased ICE Bioscience ICESTP™ SafetyOne44 Panel
# H2 = target: T12, H2 (Homo sapiens, UniProt P25021); test: SafetyOne44 panel: H2; assay type: cell-based; details: 10 μmol/L
# T12 construct: purchased ICE Bioscience ICESTP™ SafetyOne44 Panel
# T12 sequence (P25021 whole entry): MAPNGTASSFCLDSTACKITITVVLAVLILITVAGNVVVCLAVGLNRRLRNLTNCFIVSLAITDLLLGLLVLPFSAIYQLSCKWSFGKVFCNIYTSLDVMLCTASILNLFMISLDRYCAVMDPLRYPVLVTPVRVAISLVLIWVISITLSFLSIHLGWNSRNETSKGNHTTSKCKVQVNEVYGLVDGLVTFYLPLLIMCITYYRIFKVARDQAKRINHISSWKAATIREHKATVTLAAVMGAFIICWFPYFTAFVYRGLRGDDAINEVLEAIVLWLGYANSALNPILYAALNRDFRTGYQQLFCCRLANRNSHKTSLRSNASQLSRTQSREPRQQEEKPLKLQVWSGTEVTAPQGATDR
# δOR = target: T13, δOR (Homo sapiens, UniProt P41143); test: cell-based; assay type: cell-based
# T13 construct: purchased ICE Bioscience ICESTP™ SafetyOne44 Panel
# T13 sequence (P41143 whole entry): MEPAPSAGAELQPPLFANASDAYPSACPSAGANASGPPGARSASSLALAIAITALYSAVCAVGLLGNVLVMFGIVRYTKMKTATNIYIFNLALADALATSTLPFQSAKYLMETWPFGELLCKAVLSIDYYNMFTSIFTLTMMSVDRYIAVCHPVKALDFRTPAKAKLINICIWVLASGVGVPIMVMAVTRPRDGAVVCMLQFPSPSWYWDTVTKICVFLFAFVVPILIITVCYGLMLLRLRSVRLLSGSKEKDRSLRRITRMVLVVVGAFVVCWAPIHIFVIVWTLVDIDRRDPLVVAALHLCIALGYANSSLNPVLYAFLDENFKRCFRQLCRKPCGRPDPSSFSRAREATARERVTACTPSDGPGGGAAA
# GR = target: T14, GR (Homo sapiens, UniProt P04150); test: SafetyOne44 panel: GR; assay type: cell-based
# T14 construct: purchased ICE Bioscience ICESTP™ SafetyOne44 Panel
# AR = target: T15, AR (Homo sapiens, UniProt P10275); test: cell-based; assay type: cell-based
# T15 construct: purchased ICE Bioscience ICESTP™ SafetyOne44 Panel
# T15 sequence (P10275 whole entry): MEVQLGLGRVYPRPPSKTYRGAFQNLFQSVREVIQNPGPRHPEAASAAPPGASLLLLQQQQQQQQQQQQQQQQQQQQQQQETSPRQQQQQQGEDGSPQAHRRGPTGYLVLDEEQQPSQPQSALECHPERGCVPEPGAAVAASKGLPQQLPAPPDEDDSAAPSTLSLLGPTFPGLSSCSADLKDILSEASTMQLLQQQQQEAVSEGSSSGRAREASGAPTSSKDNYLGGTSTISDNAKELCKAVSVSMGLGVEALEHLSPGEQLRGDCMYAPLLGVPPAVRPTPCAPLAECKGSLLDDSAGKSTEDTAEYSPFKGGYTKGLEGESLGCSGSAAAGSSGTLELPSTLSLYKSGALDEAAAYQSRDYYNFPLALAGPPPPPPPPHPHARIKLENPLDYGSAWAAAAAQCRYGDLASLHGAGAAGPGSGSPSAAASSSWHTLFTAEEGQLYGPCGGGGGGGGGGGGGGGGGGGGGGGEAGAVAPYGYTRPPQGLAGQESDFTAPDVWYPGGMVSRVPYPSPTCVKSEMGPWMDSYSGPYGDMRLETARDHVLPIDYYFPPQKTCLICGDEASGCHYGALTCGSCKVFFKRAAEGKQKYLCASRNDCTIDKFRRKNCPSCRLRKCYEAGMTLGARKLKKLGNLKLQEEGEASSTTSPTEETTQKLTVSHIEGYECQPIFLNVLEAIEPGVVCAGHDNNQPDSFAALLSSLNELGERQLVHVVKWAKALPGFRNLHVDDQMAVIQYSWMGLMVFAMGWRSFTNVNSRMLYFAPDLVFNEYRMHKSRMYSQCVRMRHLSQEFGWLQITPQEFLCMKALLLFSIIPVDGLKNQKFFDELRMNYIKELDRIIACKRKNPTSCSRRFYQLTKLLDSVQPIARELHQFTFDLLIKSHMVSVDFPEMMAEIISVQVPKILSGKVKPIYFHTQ
# MAO A = target: T16, MAO A (Homo sapiens, UniProt P21397); test: SafetyOne44 panel: MAO A; assay type: biochemical; details: 10 μmol/L, read-out: Antagonist JDIC-127 @10 μmol/L
# T16 construct: purchased ICE Bioscience ICESTP™ SafetyOne44 Panel
# ACHE = target: T17, ACHE (Homo sapiens, UniProt P22303); test: biochemical; details: 10 μmol/L, read-out: Antagonist JDIC-127 @10 μmol/L
# T17 construct: purchased ICE Bioscience ICESTP™ SafetyOne44 Panel
# NET = target: T18, NET (Homo sapiens, UniProt P23975); test: SafetyOne44 panel: NET; assay type: cell-based; details: NET, 10 μmol/L; read-out: Antagonist JDIC-127 @10 μmol/L
# T18 construct: ICE Bioscience ICESTP SafetyOne44 Panel
# Cav1.2 = target: T19, Cav1.2 (Homo sapiens, UniProt Q13936); assay type: cell-based; details: Cav1.2, 5 μmol/L
# T19 construct: ICE Bioscience ICESTP SafetyOne44 Panel
# NR1/NR2B = target: T20, NR1/NR2B (Homo sapiens, UniProt Q05586+Q13224); test: SafetyOne44 panel ion channels: NR1/NR2B; assay type: cell-based; details: NR1/NR2B, 5 μmol/L
# T20 construct: ICE Bioscience ICESTP SafetyOne44 Panel
# H1 = H1 (Homo sapiens, UniProt P35367); details: H1, agonist mode
# [3] = antagonist mode, 10 μmol/L, read-out: Antagonist JDIC-127 @10 μmol/L
smiles,measurement,setting,value
O=c1c2c3nc(n2Cc2ccc(Cl)cc2)Oc2ccc(F)c(c2)OCCCCCCn3c(=O)n1CCCO [JDIC-127],pIC50,"TRPC5 [1]; HEK293T, 100 nmol/L Englerin A, read-out: IC50, inhibition of TRPC5, calcium flux assay",10.18
same,inhibition of TRPC5 calcium influx,TRPC5 [1]; at concentrations of 1.4 nmol/L or higher,More than 80%
same,fold increase in activity (vs compound 6),"TRPC5 [1]; calcium flux, SAR",approximately 15 fold
same,pIC50,TRPC5 [2],11.85
same,effect of mutation on inhibitory potency of JDIC-127,TRPC5 Q573A,significantly diminished
same,Agonist JDIC-127 @10 μmol/L,"M1; M1, agonist mode",–0.83%
same,inhibition at 10 µM,"M1; M1, antagonist mode, 10 μmol/L, read-out: Antagonist JDIC-127 @10 μmol/L",0.22%
same,Agonist JDIC-127 @10 μmol/L,"M2; M2, agonist mode",2.82%
same,inhibition at 10 µM,"M2; M2, antagonist mode, 10 μmol/L, read-out: Antagonist JDIC-127 @10 μmol/L",-0.26%
same,Agonist JDIC-127 @10 μmol/L,5-HT1A; agonist mode,–1.59%
same,inhibition at 10 µM,5-HT1A; [3],-6.7%
same,Agonist JDIC-127 @10 μmol/L,5-HT1B; agonist mode,10.95%
same,inhibition at 10 µM,"5-HT1B; antagonist mode, read-out: Antagonist JDIC-127 @10 μmol/L",-14.7%
same,Agonist JDIC-127 @10 μmol/L,A2A; agonist mode,–1.55%
same,Antagonist JDIC-127 @10 μmol/L,A2A; antagonist mode,–2.78%
same,Agonist JDIC-127 @10 μmol/L,α2A; agonist mode,–1.14%
same,inhibition at 10 µM,α2A; [3],-8.62%
same,Agonist JDIC-127 @10 μmol/L,"β1; β1, agonist mode",–1.87%
same,inhibition at 10 µM,"β1; β1, antagonist mode, 10 μmol/L, read-out: Antagonist JDIC-127 @10 μmol/L",1.84%
same,Agonist JDIC-127 @10 μmol/L,"β2; β2, agonist mode",–1.53%
same,inhibition at 10 µM,"β2; β2, antagonist mode, 10 μmol/L, read-out: Antagonist JDIC-127 @10 μmol/L",19.6%
same,Agonist JDIC-127 @10 μmol/L,"CB1; CB1, agonist mode",33.32%
same,inhibition at 10 µM,"CB1; CB1, antagonist mode, 10 μmol/L, read-out: Antagonist JDIC-127 @10 μmol/L",-9.83%
same,Agonist JDIC-127 @10 μmol/L,"H2; H2, agonist mode",–6.71%
same,inhibition at 10 µM,"H2; H2, antagonist mode, read-out: Antagonist JDIC-127 @10 μmol/L",5.6%
same,Agonist JDIC-127 @10 μmol/L,δOR; agonist mode,7.81%
same,inhibition at 10 µM,δOR; [3],-21.6%
same,Agonist JDIC-127 @10 μmol/L,GR; agonist mode,0.05%
same,inhibition at 10 µM,GR; [3],4.73%
same,Agonist JDIC-127 @10 μmol/L,AR; agonist mode,0.06%
same,inhibition at 10 µM,AR; [3],-7.02%
same,inhibition at 10 µM,MAO A,15.5%
same,inhibition at 10 µM,ACHE,0.88%
same,inhibition at 10 µM,NET,-5.84%
same,Antagonist JDIC-127 @5 μmol/L,Cav1.2,20.23%
same,Agonist JDIC-127 @ 5 μmol/L,NR1/NR2B; agonist mode,1.53%
same,Antagonist JDIC-127 @5 μmol/L,NR1/NR2B; antagonist mode,17.19%
same,Agonist JDIC-127 @10 μmol/L,H1,3.21%
